Data set [1] deals with primary rat cortical cultures. The experiment in a line: Neutral red (NR) uptake cytotoxicity assay. The format is cell-based. The settings on record: for Bottom (baseline, % control) / Top (maximal cell death, % control): fitted NR curve, primary rat cortical neurons, 24 h; for pEC50: primary rat cortical cultures, 24 h of exposure, mean (95% CI). How it is done:
Female Wistar rats were obtained from Charles River Laboratories. The animals were allowed free access to rat chow and water, being maintained on a 12 h/12 h light/dark cycle, under controlled temperature (20 ± 2 °C) and humidity (40–60%). Primary cortical cultures were prepared as previously described. Briefly, for embryo collection, the pregnant female Wistar rats were anesthetized with isoflurane and subsequently administered ketamine and xylazine (200 + 100 μL, intraperitoneal). At the end of the dissection procedures, the female rat was euthanized with the administration of sodium pentobarbital ([…]). The embryos were used between embryonic day 16 (E16) and E19, considering the mating day as E0. The embryos were dissected from the uterus, and the heads were decapitated and placed in ice-cold 0.1 M PBS supplemented with 0.6% (w/v) glucose. The cortex dissection was performed under a Zeiss stereo microscope (Stemi DV4). Following trypsinization (0.05% trypsin/EDTA) and DNAse I treatment, the tissue pieces were mechanically dissociated, and the cells seeded in freshly prepared neurobasal medium (supplemented with 2% B-27, 100 U/mL of penicillin, 100 μg/mL of streptomycin, and 1% GlutaMAX^TM supplement) at a density of 150,000 cells/cm^2 in 96-well plates precoated, overnight, with 0.05 mg/mL PLL solution (prepared in 0.1 M borate buffer, pH 8.5). The cultures were maintained at 37 °C in a 5% CO2 air atmosphere. The medium was renewed at 4 days in vitro (DIV) by replacing half of the volume with fresh medium, and the cultures were used at 8 DIV.
(§1) The differentiated SH-SY5Y cells (25,000 cells/cm^2) and primary rat cortical cultures (150,000 cells/cm^2) were seeded onto 96-well plates as previously described.
(§2) Accordingly, 6 days after seeding (differentiated SH-SY5Y cells) or at 8 DIV (primary cultures), the cells were exposed, for 24 h (37 °C, 5% CO2), to different concentrations of the drugs (0–1000 µM). Thus, the tested concentrations ranged from 0 to 1000 µM for 2C-T-2 and 2C-T-4; 0 to 500 µM for 2C-T-7; 0 to 250 µM for 25T2-NBOMe, and 0 to 100 µM for 25T4-NBOMe and 25T7-NBOMe.
(§3) The NR uptake assay is based on the detection of viable cells through the incorporation of the NR dye by the cell’s lysosomes. In brief, after 24 h of exposure to the tested drugs, the differentiated SH-SY5Y cells and primary rat cortical cultures were incubated with NR (50 µg/mL in complete medium) for 90 or 210 min, respectively, at 37 °C, in a 5% CO2-95% air atmosphere. To extract the absorbed dye, an acidified ethanol solution was used, and the absorbance was then measured at 540 nm in a multi-well plate reader (PowerWaveX, BioTek Instruments, Winooski, VT, USA). The cytotoxicity was estimated by the percentage of NR uptake relative to the control cells, and a minimum of 4 independent experiments were conducted in triplicate.

Data set [2] relates to differentiated SH-SY5Y cells. In words: MTT reduction cytotoxicity assay. The settings on record: for pEC50: Homo sapiens, differentiated SH-SY5Y cells, 24 h of exposure, mean (95% CI); for Bottom (baseline, % control) / Top (maximal cell death, % control): fitted MTT curve, SH-SY5Y cells, 24 h. The format is cell-based, human. The procedure:
(§4) The cells were seeded at a density of 25,000 cells/cm^2. To achieve a more mature neuron-like phenotype, SH-SY5Y cells were initially cultured in a complete medium supplemented with RA (10 µM). Subsequently, 3 days post-seeding, TPA (80 nM) was added to each well, and the cells were maintained for another 3 days until use, thus achieving a dopaminergic phenotype. In all the experiments, the cells were used between passages 22 and 28.
as §1, §2
The MTT reduction assay is based on the capacity of metabolically active cells to reduce the water-soluble yellow tetrazolium dye (MTT) into water-insoluble formazan crystals. In brief, after 24 h of exposure to the tested drugs, the differentiated SH-SY5Y cells were incubated with MTT (0.5 mg/mL in complete medium) for 90 min, at 37 °C, in a 5% CO2-95% air atmosphere. To solubilize the formed formazan crystals, an organic solvent (DMSO) was used, and the absorbance was then measured at 550 nm in a multi-well plate reader (PowerWaveX, BioTek Instruments, Winooski, VT, USA). The cytotoxicity was estimated by the percentage of MTT reduction relative to the control cells, and a minimum of 4 independent experiments were conducted in triplicate.
For orientation: Tetrazolium dyes change colour on reduction, which living cells bring about.

In data set [3] the test system is differentiated SH-SY5Y cells. The experiment in a line: Neutral red (NR) uptake cytotoxicity assay. In kind it is cell-based, human. The settings on record: for pEC50: Homo sapiens; for EC20 (concentration inducing 20% of cytotoxicity) / EC80 (concentration inducing 80% of cytotoxicity): NR uptake; for Bottom (baseline, % control) / Top (maximal cell death, % control): fitted NR curve, SH-SY5Y cells. The procedure: as §4, §1, §2, §3

Data set [4] relates to differentiated SH-SY5Y cells. The experiment in a line: Intracellular ATP levels, luciferin-luciferase bioluminescence. In kind it is cell-based, human. The procedure: Adenosine triphosphate (ATP) is often considered the primary energy currency of cells, being essential for several cellular activities, such as active transport, metabolism, and cell signaling, among many others. The intracellular ATP levels were measured using a bioluminescence method, consisting of the reaction between luciferin and ATP in the presence of luciferase, where the resulting light intensity is directly proportional to the amount of ATP present in the cells.
Thus, the SH-SY5Y cells were seeded onto 6-well plates (25,000 cells/cm^2) following the previously described seeding and differentiation protocol. On the day of the experiment, the cells were exposed to different concentrations of the tested drugs (EC20 and EC50) for 24 h (37 °C, 5% CO2). At the end of the incubation period, the cells were centrifuged (5 min, 250× g, 4 °C), the supernatants were rejected, and proteins were precipitated with 5% HClO4 for at least 30 min (4 °C). Subsequently, the acidic samples were collected from the plates, centrifuged (5 min, 16,000× g, 4 °C), and the supernatants were stored until further ATP analysis (−80 °C). To assess protein content, the pellets were resuspended in 1 M NaOH, maintained at 4 °C overnight, and stored until further analysis (−20 °C). A Bio-Rad DC™ protein assay kit (Bio-Rad Laboratories, Hercules, CA, USA) was used to analyze protein content, in accordance with the manufacturer’s guidelines.
Before the ATP quantification, the acidic samples were diluted (1:5) with 5% HClO4, and the diluted samples/standards were neutralized with an ice-cold KHCO3 solution (1:1) and centrifuged (16,000× g, 5 min, 4 °C). Then, 75 µL of each sample/standard supernatant was transferred into a white 96-well plate, 75 µL of a luciferin (300 µM)-luciferase (3,000,000 U/mL) solution (10–90%, respectively) was added, and bioluminescence (560 nm, 28 °C) was immediately measured in a multi-well plate reader (PowerWaveX, BioTek Instruments, Winooski, VT, USA).
ATP levels were standardized to protein content. The results are presented as a percentage relative to the control cells (0 µM). A minimum of 6 independent experiments were conducted in duplicate.

[5] abbreviates: bound stated for both SH-SY5Y cells and primary rat cortical cultures, 24 h, read-out: EC50 values, NR uptake assay, both cellular models.
[6] abbreviates: differentiated SH-SY5Y cells, 24 h of exposure, mean (95% CI), read-out: NR EC50 Values.
The mark [7] stands for this setting: differentiated SH-SY5Y cells, 24 h, mean (95% CI).

pEC50: −log10 of the molar value.

As a reminder, the pEC50 is the EC50 on a negative log10 scale, so that one unit is a factor of ten. `CCSc1cc(OC)c(CCN)cc1OC.Cl` [2C-T-2, 2-(4-(ethylthio)-2,5-dimethoxyphenyl)ethan-1-aminium chloride]: the figures for the “Bottom (baseline, % control)” value in data set [1], in data set [2] and in data set [3] (24 h) were 1.639 % control, 4.516 % control and 4.054 % control, respectively. Also, the “Top (maximal cell death, % control)” value in data set [1] amounted to 83.85 % control; in data set [2], 97.13 % control; in data set [3] (24 h) it was 100.0 % control. Further, the pEC50 in data set [1] was 3.66; in data set [2], 3.51; in data set [3] (setting [5]), under 3.67; in data set [3] (setting [6]), 3.61. In addition, the “EC20 (concentration inducing 20% of cytotoxicity)” value in data set [3] (setting [7]) is given as 123.2 (107.1 to 138.8) μM. Moreover, in data set [3] (setting [7]), the “EC80 (concentration inducing 80% of cytotoxicity)” value is reported as 491.0 (413.7 to 514.4) μM. Further, the “decrease of intracellular ATP levels relative to control cells” value is 18.1% in data set [4] (drug at its EC20, 24 h) and 24.8% in data set [4] (drug at its EC50, 24 h).

Regarding `COc1cc(SC(C)C)c(OC)cc1CCN.Cl` [2C-T-4, 2-(4-(isopropylthio)-2,5-dimethoxyphenyl)ethan-1-aminium chloride], the “Bottom (baseline, % control)” value stood at 0.7855 % control in data set [1], 4.106 % control in data set [2] and 5.069 % control in data set [3] (24 h). Besides, the “Top (maximal cell death, % control)” value in data set [1] came to 82.56 % control; in data set [2] it was 99.28 % control; in data set [3] (24 h), 96.98 % control. The results for the pEC50 in data set [1], in data set [2] and in data set [3] (setting [6]) were 3.96, 3.72 and 3.81, respectively. The “EC20 (concentration inducing 20% of cytotoxicity)” value in data set [3] (setting [7]) is given as 81.5 (79.9 to 92.1) μM. In data set [3] (setting [7]), the “EC80 (concentration inducing 80% of cytotoxicity)” value was 291.4 (255.9 to 342.3) μM. Besides, the “decrease of intracellular ATP levels relative to control cells” value in data set [4] (drug at its EC20, 24 h) is 17.8%; in data set [4] (drug at its EC50, 24 h) it was 28.7%.

On to `CCCSc1cc(OC)c(CCN)cc1OC.Cl` [2C-T-7, 2-(2,5-dimethoxy-4-(propylthio)phenyl)ethan-1-aminium chloride], for which the “Bottom (baseline, % control)” value is 1.452 % control in data set [1], 5.625 % control in data set [2] and 6.754 % control in data set [3] (24 h). For the same compound, the results for the “Top (maximal cell death, % control)” value in data set [1], in data set [2] and in data set [3] (24 h) were 84.63 % control, 100.0 % control and 97.99 % control, respectively. The pEC50 in data set [1] was 4.13; in data set [2] it was 4.03; in data set [3] (setting [5]) it was over 4.12; in data set [3] (setting [6]) it was 4.13. Moreover, the “EC20 (concentration inducing 20% of cytotoxicity)” value in data set [3] (setting [7]) is listed as 39.5 (34.4 to 44.4) μM. Besides, the “EC80 (concentration inducing 80% of cytotoxicity)” value in data set [3] (setting [7]) was 140.5 (125.4 to 161.2) μM. Also, the “decrease of intracellular ATP levels relative to control cells” value in data set [4] (drug at its EC20, 24 h) stood at 16.9%; in data set [4] (drug at its EC50, 24 h), 24.1%.

As to `CCSc1cc(OC)c(CCNCc2ccccc2OC)cc1OC.Cl` [25T2-NBOMe, 2-(4-(ethylthio)-2,5-dimethoxyphenyl)-N-(2-methoxybenzyl)ethan-1-aminium chloride], the “Bottom (baseline, % control)” value in data set [1] was determined as 3.637 % control; in data set [2] it was 3.123 % control; in data set [3] (24 h), 1.962 % control. The entries for the “Top (maximal cell death, % control)” value in data set [1], in data set [2] and in data set [3] (24 h) were 81.45 % control, 95.97 % control and 98.41 % control, respectively. In addition, the pEC50 was 4.58 in data set [1], 4.33 in data set [2], under 4.60 in data set [3] (setting [5]) and 4.43 in data set [3] (setting [6]). The “decrease of intracellular ATP levels relative to control cells” value in data set [4] (drug at its EC20, 24 h) came out at 16.0%; in data set [4] (drug at its EC50, 24 h), 23.5%.

As for `COc1cc(SC(C)C)c(OC)cc1CCNCc1ccccc1OC.Cl` [25T4-NBOMe, 2-(4-(isopropylthio)-2,5-dimethoxyphenyl)-N-(2-methoxybenzyl)ethan-1-aminium chloride], the “Bottom (baseline, % control)” value in data set [1] amounted to 2.059 % control; in data set [2] it was 1.753 % control. In addition, the “Top (maximal cell death, % control)” value in data set [1] is given as 83.51 % control; in data set [2], 100.0 % control; in data set [3] (24 h) it was 100.0 % control. Besides, the negative logarithm of the EC50 (pEC50) in data set [1] is 4.70; in data set [2], 4.44; in data set [3] (setting [6]), 4.45. The “decrease of intracellular ATP levels relative to control cells” value is reported as 14.6% in data set [4] (drug at its EC20, 24 h) and 21.8% in data set [4] (drug at its EC50, 24 h).

For the compound `CCCSc1cc(OC)c(CCNCc2ccccc2OC)cc1OC.Cl` [25T7-NBOMe, 2-(2,5-dimethoxy-4-(propylthio)phenyl)-N-(2-methoxybenzyl)ethan-1-aminium chloride], the figures for the “Bottom (baseline, % control)” value in data set [1], in data set [2] and in data set [3] (24 h) were 3.972 % control, 2.444 % control and 8.660 % control, respectively. For the same compound, the figures for the “Top (maximal cell death, % control)” value in data set [1], in data set [2] and in data set [3] (24 h) were 82.95 % control, 96.91 % control and 94.74 % control, respectively. The pEC50 in data set [1] is 4.84; in data set [2], 4.63; in data set [3] (setting [5]) it was over 4.66; in data set [3] (setting [6]), 4.66. Moreover, the “decrease of intracellular ATP levels relative to control cells” value is 12.0% in data set [4] (drug at its EC20, 24 h) and 21.4% in data set [4] (drug at its EC50, 24 h).

The record behind these values is PMC11204507, “Mechanistic Insights into the Neurotoxicity of 2,5-Dimethoxyphenethylamines (2C) and Corresponding N-(2-methoxybenzyl)phenethylamine (NBOMe) Drugs” (Journal of Xenobiotics, 2024).
